Measurements from US20170144985A1, “DIAMINOTRIAZINE COMPOUND USEFUL AS HERBICIDE” (BASF SE, priority 2014, published 2017).

Columns and labels:
Test in all cases: greenhouse pre-emergence herbicidal test
APESV = assay type: in vivo, Apera spica-venti; conditions: application rate 0.5 kg/ha, scale from 0 to 100, APESV
Text: (§1) The seeds of the test plants were sown separately for each species. For the pre-emergence treatment, the active ingredients, which had been suspended or emulsified in water, were applied directly after sowing by means of finely distributing nozzles. The containers were irrigated gently to promote germination and growth and subsequently covered with transparent plastic hoods until the plants had rooted. This cover caused uniform germination of the test plants, unless this had been impaired by the active ingredients. Depending on the species, the plants were kept at 10-25° C. or 20-35° C., respectively. The test period extended over 2 to 4 weeks. During this time, the plants were tended, and their response to the individual treatments was evaluated. Evaluation was carried out using a scale from 0 to 100. 100 means no emergence of the plants, or complete destruction of at least the aerial moieties, and 0 means no damage, or normal course of growth. A moderate herbicidal activity is given at values of at least 60, a good herbicidal activity is given at values of at least 70, and a very good herbicidal activity is given at values of at least 85. The plants used in the greenhouse experiments were of the following species: [table]

AMARE = assay type: in vivo, Amaranthus retroflexus; conditions: application rate 0.5 kg/ha, scale from 0 to 100, AMARE
Text: as §1

ALOMY = assay type: in vivo, Alopecurus myosuroides; conditions: application rate 0.5 kg/ha, scale from 0 to 100, ALOMY
Text: as §1

SMILES: Nc1nc(Nc2c(F)c(F)nc(F)c2F)nc(N2CCCC2)n1 [Example 1, 6-pyrrolidin-1-yl-N4-(2,3,5,6-tetrafluoro-4-pyridyl)-1,3,5-triazine-2,4-diamine]
- herbicidal activity (APESV): very good (a very good herbicidal activity is given at values of at least 85)
- herbicidal activity (AMARE): very good (a very good herbicidal activity is given at values of at least 85)
- herbicidal activity (ALOMY): very good (a very good herbicidal activity is given at values of at least 85)
